# Assay results reported in PMC6943434, “Novel Homo-Bivalent and Polyvalent Compounds Based on Ligustrazine and Heterocyclic Ring as Anticancer Agents” (Molecules, 2019).
# Where two headings read alike, the source gives them in different places.
# Assays:
# [1] = system: HeLa, Hep G2, MCF-7, FaDu, A549, MCF 10A; experiment: MTT cell viability assay, summary over the cell line panel; format: cell-based, human; details: 48 h, span over the cell lines, read-out: IC50 range over tested cell lines
# Experimental: (§1) The tested cells were obtained from Shanghai Institute of Biochemistry and Cell Biology of the Chinese Academy of Sciences (Shanghai, China). HeLa and Hep G2 cell lines were cultured in Dulbecco’s modified Eagle’s medium (DMEM; gibco, Life Technologies, Carlsbad, CA, USA) supplemented with 10% fetal bovine serum (FBS; Biological Industries), 100 U/mL penicillin-streptomycin (PS; gibco, Life Technologies, Carlsbad, CA, USA). MCF-7 and A549 cell lines were maintained in RPMI-1640 media (gibco, Life Technologies, Carlsbad, CA, USA) supplemented with 10% FBS and 100 U/mL PS. FaDu cell lines were cultured in minimum essential medium (MEM; Gibco, Life Technologies, Carlsbad, CA, USA) supplemented with 10% FBS and 100 U/mL PS. MCF 10A cell lines were maintained in Mammary MEGM kit (Lonza/Clonetics) supplemented with 100 ng/mL cholera toxin (Sigma, Shanghai, China). Cell lines were grown at 37 °C in a humidified atmosphere of 5% CO2.
# (§2) The growth-inhibitory effects against HeLa, Hep G2, MCF-7, FaDu, and A549 cancer cells and normal cell lines MCF 10A were determined by MTT assay. […] Cells were seeded in 96 well plates at a density of 1 × 10^4 cells per well and incubated for 24 h at 37 °C in a humidified atmosphere of 5% CO2. The cells were then incubated with various concentrations of drugs for 48 h in a 5% CO2 incubator at 37 °C. After treatment with 1 mg/mL 3-(4,5-dimethylthiazol-2-yl)-2,5-diphenyltetrazolium bromide (MTT) solution for 4 h, the formazan crystals were dissolved in 100 µL DMSO in each well. Plates were read on a microplate reader (Thermo Varioskan Flash 3001) at 490 nm. The experiment was performed in triplicate. The inhibitory concentration at 50% (IC50) was calculated based on concentration-inhibition relationships via regression using SPSS software (Version 17.0).
# [2] = system: FaDu (head and neck squamous carcinoma cell line); experiment: MTT cell viability assay, FaDu; format: cell-based, human; details: for IC50: Homo sapiens, FaDu, 48 h, MTT, read-out: Antiproliferative Activity IC50 ± SEM, FaDu; for SI: selectivity index: SI = IC50 (MCF 10A)/IC50 (FaDu)
# Experimental: as §1, §2
# [3] = system: MCF-7 (breast cancer cell line); experiment: MTT cell viability assay, MCF-7; format: cell-based; details: Homo sapiens, MCF7, 48 h, read-out: Antiproliferative Activity IC50 ± SEM, MCF-7
# Experimental: as §1, §2
# [4] = system: Hep G2 (hepatocarcinoma cell line); experiment: MTT cell viability assay, Hep G2; format: cell-based; details: Homo sapiens, HepG2, 48 h, read-out: Antiproliferative Activity IC50 ± SEM, Hep G2
# Experimental: as §1, §2
# [5] = system: A549 (epithelial cancer cell line); experiment: MTT cell viability assay, A549; format: cell-based; details: Homo sapiens, 48 h, read-out: Antiproliferative Activity IC50 ± SEM, A549
# Experimental: as §1, §2
# [6] = system: MCF 10A (normal mammary epithelial cell); experiment: MTT cell viability assay, MCF 10A; format: cell-based; details: Homo sapiens, 48 h, normal cells, read-out: Antiproliferative Activity IC50 ± SEM, MCF 10A
# [7] = system: HeLa (cervical cancer cell line); experiment: MTT cell viability assay, HeLa; format: cell-based; details: Homo sapiens, 48 h, read-out: Antiproliferative Activity IC50 ± SEM, HeLa
# Experimental: as §1, §2
# FaDu cells [8] = experiment: Flow cytometric analysis of apoptosis by annexin V-FITC/PI staining; format: cell-based, human; details: 24 h, control 8.23%
# Experimental: Apoptosis in FaDu cells was evaluated by an annexin V-FITC/PI apoptosis detection kit (Beyotime Institute of Biotechnology, Shanghai, China). Briefly, FaDu cells were treated with various concentrations of compound 8e (2, 5, 10 nM) or DMSO as vehicle control for 24 h at 37 °C; then, the cells were washed twice with cold 1× PBS and centrifuged at 1000 rpm for 5 min. The harvested cells were resuspended gently in 400 µL binding buffer, containing 5 µL annexin V-FITC and 10 µL PI. After incubating for 15 min in the dark at room temperature, the cells were analyzed with flow cytometry (CyFlow® Cube 6, Sysmex). Data were shown as pseudo color graphs and analyzed using FlowJo Software (Tree Star Inc, Ashland, OR).
# FaDu cells [9] = experiment: Cell cycle analysis by PI staining; format: cell-based, human; details: 24 h; for percentage of cells in the S phase: control 28.1%; for population of the G0/G1 phase: control 51.9%
# Experimental: The cell cycle analysis was carried out by a cell cycle and apoptosis analysis kit with a propidium iodide (PI) staining method (Beyotime Institute of Biotechnology, Shanghai, China). Briefly, FaDu cells were incubated with the above-mentioned doses of compound 8e for 24 h; all samples were collected, washed once with cold 1× PBS, and fixed by 70% ice-cold ethanol at 4 °C for 12 h. Then, the fixed cells were washed once with cold 1× PBS and stained with 500 µL 1× PI dye solution (containing 10 µL RNase A) at 37 °C for 30 min in the dark. The red fluorescence was detected using a flow cytometer (CyFlow® Cube 6, Sysmex). The data were analyzed using FlowJo Software (Tree Star Inc, Ashland, OR, USA).
# FaDu cells [10] = experiment: Colony formation assay; format: cell-based; details: Homo sapiens, 240 h, 6 nM, 10 days, read-out: colony inhibition rate
# Experimental: FaDu cells were seeded in a 6-well plate with 500 cells per well and incubated for 24 h. Then, the cells were treated with compound 8e at various final concentrations of 0, 0.75, 1.50, 3 nM. Following treatment for 10 days, the cells were washed with PBS twice and fixed with 4% paraformaldehyde for 10 min at room temperature. Then, the cell colonies were visualized by staining with 0.1% crystal violet for 10 min. The image was photographed with Handy camera, and the numbers of cell colonies were analyzed using the open Image J software (Developed by National Institutes of Health). A group of >50 cells was defined as one colony. Triplicate wells were set up for each concentration.
SMILES,IC50 ([1]; Homo sapiens) [µM],IC50 [2] [µM],SI: selectivity index [2],IC50 [3] [µM],IC50 [4] [µM],IC50 [5] [µM],IC50 [6] [µM],IC50 [7] [µM],IC50 [1] [µM],apoptotic cells (early and late apoptosis ratios) (FaDu cells [8]; 2 nM) [%],apoptotic cells (early and late apoptosis ratios) (FaDu cells [8]; 5 nM) [%],apoptotic cells (early and late apoptosis ratios) (FaDu cells [8]; 10 nM) [%],percentage of cells in the S phase (FaDu cells [9]; 2 nM) [%],population of the G0/G1 phase (FaDu cells [9]; 2 nM) [%],percentage of cells in the S phase (FaDu cells [9]; 5 nM) [%],population of the G0/G1 phase (FaDu cells [9]; 5 nM) [%],percentage of cells in the S phase (FaDu cells [9]; 10 nM) [%],population of the G0/G1 phase (FaDu cells [9]; 10 nM) [%],inhibition at 0.006 µM (FaDu cells [10]) [%]
"Cc1nc(C)c(CN(CCCCCCCCCCCCN(Cc2nc(C)c(C)nc2C)Cc2nc(C)c(C)nc2C)Cc2nc(C)c(C)nc2C)nc1C [Compound 6g, N^1,N^1,N^12,N^12-Tetrakis((3,5,6-Trimethylpyrazin-2-yl)Methyl)Dodecane-1,12-Diamine]",6.57 to 20.8,6.8 ± 0.05,0.97,9.83 ± 0.17,9.62 ± 0.11,9.23 ± 0.16,6.57 ± 0.3,7.89 ± 0.86,,,,,,,,,,,
"Cc1nc(C)c(CN(CCCCCCCCCCN(Cc2nc(C)c(C)nc2C)Cc2nc(C)c(C)nc2C)Cc2nc(C)c(C)nc2C)nc1C [Compound 6f, N^1,N^1,N^10,N^10-Tetrakis((3,5,6-Trimethylpyrazin-2-yl)Methyl)Decane-1,10-Diamine]",6.57 to 20.8,10.9 ± 0.12,1.19,20.83 ± 0.14,10.7 ± 0.22,20.1 ± 0.41,13 ± 0.55,10.2 ± 0.55,,,,,,,,,,,
"Cc1nc(C)c(C(=O)NCCCCCCCCCCNC(=O)c2nc(C)c(C)nc2C)nc1C [Compound 8e, N,N′-(Decane-1,10-Diyl)Bis(3,5,6-Trimethylpyrazine-2-Carboxamide)]",,0.00136 ± 0.00035,34.56,0.037 ± 0.001,> 20,1.05 ± 0.05,0.047 ± 0.008,1.42 ± 0.71,0.00136 to 1.42,34.2,57.7,79.5,33.7,41.8,44.3,44.2,54.7,32.4,~85.4
"Cc1nc(C)c(C(=O)NCCCCCCCCCCCCNC(=O)c2nc(C)c(C)nc2C)nc1C [Compound 8f, N,N′-(Dodecane-1,12-Diyl)Bis(3,5,6-Trimethylpyrazine-2-Carboxamide)]",,0.174 ± 0.01,0.29,0.158 ± 0.009,> 20,2.46 ± 0.05,0.051 ± 0.021,4.96 ± 1.62,,,,,,,,,,,
"Cc1nc(C)c(C(=O)NCCCCNC(=O)c2nc(C)c(C)nc2C)nc1C [Compound 8b, N,N′-(Butane-1,4-Diyl)Bis(3,5,6-Trimethylpyrazine-2-Carboxamide)]",,> 100,,> 100,> 100,> 100,> 100,> 100,,,,,,,,,,,
"Cc1nc(C)c(C(=O)NCCCNC(=O)c2nc(C)c(C)nc2C)nc1C [Compound 8a, N,N′-(Propane-1,3-Diyl)Bis(3,5,6-Trimethylpyrazine-2-Carboxamide)]",,> 100,,> 100,> 100,> 100,> 100,> 100,,,,,,,,,,,
"Cc1nc(C)c(CN(CCCN(Cc2nc(C)c(C)nc2C)Cc2nc(C)c(C)nc2C)Cc2nc(C)c(C)nc2C)nc1C [Compound 6b, N^1,N^1,N^3,N^3-Tetrakis((3,5,6-Trimethylpyrazin-2-yl)Methyl)Propane-1,3-Diamine]",,> 100,,> 100,> 100,> 100,> 100,> 100,,,,,,,,,,,
"COc1ccc(/C=C/C(=O)NCCCCCCCCCCNC(=O)/C=C/c2ccc(OC)c(O)c2)cc1O [Compound 26e, (2E,2′E)-N,N′-(Decane-1,10-Diyl)Bis(3-(3-Hydroxy-4-Methoxyphenyl)Acrylamide)]",,> 20,,> 20,> 20,> 20,> 20,> 20,,,,,,,,,,,
"Nc1ccc(C(=O)NCCCCCCCCCCNC(=O)c2ccc(N)cc2)cc1 [Compound 31e, N,N′-(Decane-1,10-Diyl)Bis(4-Aminobenzamide)]",,5.59 ± 0.628,>3.58,> 20,> 20,> 20,> 20,> 20,,,,,,,,,,,
